For 45 compounds, MIC99, cytotoxicity and selectivity ratio results are on record in ChEMBL document CHEMBL3596139, “N-Arylalkylbenzo[d]thiazole-2-carboxamides as anti-mycobacterial agents: design, new methods of synthesis and biological evaluation” (Medchemcomm, 2014).

SMILES strings stand for the structures. Values after ≈ are worked out from the molar mass of the structure shown. Where only a bound is given, the exact number is not on record here.

For data set [1], the system named is Mycobacterium tuberculosis. Description: Antimycobacterial activity against Mycobacterium tuberculosis H37Rv ATCC 27294 after 28 days by two-fold serial dilution method. Format: functional. The note with it: H37Rv ATCC 27294, 672 h.
A short description of data set [2]: Cytotoxicity against HEK293T cells assessed as inhibition of cell viability at 50 ug/ml after 72 hrs by MTT assay relative to control. The format is cell-based, HEK-293T. The note with it: human, read-out: INH. In general terms: Tetrazolium assays rely on reduction of a dye to a coloured formazan, in cell work by metabolically active cells.
Data set [3] can be described thus: Therapeutic index, ratio of compound cytotoxic activity for HEK293T cells to antimycobacterial activity against Mycobacterium tuberculosis H37Rv ATCC 27294. The format is cell-based, HEK-293T. The note with it: human, read-out: TI.

As for `O=C(NCc1ccccc1)c1nc2ccccc2s1`, the MIC99 in data set [1] stood at 3.12 µg/mL (≈ 11.6 µM). Moreover, the cytotoxicity at 72 h, 50 ug/ml in data set [2] stood at 41.2%.

Regarding `O=C(NCc1ccc2c(c1)OCO2)c1nc2cc(Cl)ccc2s1`, the MIC99 in data set [1] stood at 25 µg/mL (≈ 72.1 µM).

As for `O=C(NCc1ccccc1F)c1nc2ccccc2s1`, the MIC99 in data set [1] came out at 25 µg/mL (≈ 87.3 µM).

Consider `O=C(NCc1cccc(F)c1)c1nc2ccccc2s1`, for which the MIC99 in data set [1] came to 6.25 µg/mL (≈ 21.8 µM). Besides, in data set [2], the cytotoxicity at 72 h, 50 ug/ml came to 44.6%.

The compound `O=C(NCc1ccc(F)cc1)c1nc2ccccc2s1` registered an MIC99 in data set [1] of 6.25 µg/mL (≈ 21.8 µM). The cytotoxicity at 72 h, 50 ug/ml in data set [2] was found to be 50.3%.

The compound `O=C(NCc1ccc(F)cc1F)c1nc2ccccc2s1` came in with an MIC99 in data set [1] of 25 µg/mL (≈ 82.2 µM).

In data set [1], `O=C(NCc1cc(F)ccc1F)c1nc2ccccc2s1` registered an MIC99 of 6.25 µg/mL (≈ 20.5 µM). Further, the cytotoxicity at 72 h, 50 ug/ml in data set [2] stood at 52.1%.

As for `O=C(NCc1ccc(F)c(F)c1)c1nc2ccccc2s1`, the MIC99 in data set [1] is 25 µg/mL (≈ 82.2 µM).

Compound `O=C(NCc1ccccc1Cl)c1nc2ccccc2s1` had an MIC99 in data set [1] of 6.25 µg/mL (≈ 20.6 µM). In data set [2], the cytotoxicity at 72 h, 50 ug/ml turned out to be 35.6%.

Regarding `O=C(NCc1cccc(Cl)c1)c1nc2ccccc2s1`, the MIC99 in data set [1] amounted to 50 µg/mL (≈ 165 µM).

In the case of `O=C(NCc1ccc(Cl)cc1)c1nc2ccccc2s1`, the MIC99 in data set [1] stood at 50 µg/mL (≈ 165 µM).

With `O=C(NCc1ccc(Cl)cc1Cl)c1nc2ccccc2s1`, in data set [1], the MIC99 came to 50 µg/mL (≈ 148 µM).

Turning to `Cc1ccccc1CNC(=O)c1nc2ccccc2s1`, the MIC99 in data set [1] turned out to be 12.5 µg/mL (≈ 44.3 µM). Moreover, the cytotoxicity at 72 h, 50 ug/ml in data set [2] turned out to be 42.6%.

Consider `Cc1ccc(CNC(=O)c2nc3ccccc3s2)cc1`, for which the MIC99 in data set [1] amounted to 50 µg/mL (≈ 177 µM).

For the compound `COc1ccc(CNC(=O)c2nc3ccccc3s2)cc1`, the MIC99 in data set [1] was 25 µg/mL (≈ 83.8 µM).

`COc1ccccc1CNC(=O)c1nc2ccccc2s1` had an MIC99 in data set [1] of 50 µg/mL (≈ 168 µM).

As to `COc1ccc(CNC(=O)c2nc3ccccc3s2)cc1OC`, the MIC99 in data set [1] turned out to be 12.5 µg/mL (≈ 38.1 µM). Moreover, the cytotoxicity at 72 h, 50 ug/ml in data set [2] worked out at 19.1%.

As to `COc1ccc(CNC(=O)c2nc3ccccc3s2)c(OC)c1`, the MIC99 in data set [1] turned out to be 50 µg/mL (≈ 152 µM).

Compound `COc1ccc(CNC(=O)c2nc3ccccc3s2)cc1O` yielded an MIC99 in data set [1] of 25 µg/mL (≈ 79.5 µM).

In data set [1], `CC(C)(C)c1ccc(CNC(=O)c2nc3ccccc3s2)cc1` had an MIC99 of 50 µg/mL (≈ 154 µM).

Compound `O=C(NCc1ccc(C(F)(F)F)cc1)c1nc2ccccc2s1` yielded an MIC99 in data set [1] of 12.5 µg/mL (≈ 37.2 µM). Moreover, the cytotoxicity at 72 h, 50 ug/ml in data set [2] amounted to 36.7%.

In turn, `N#Cc1ccc(CNC(=O)c2nc3ccccc3s2)cc1` displayed an MIC99 in data set [1] of 12.5 µg/mL (≈ 42.6 µM). The cytotoxicity at 72 h, 50 ug/ml in data set [2] came out at 36%.

For the compound `O=C(NCc1ccc([N+](=O)[O-])cc1)c1nc2ccccc2s1`, in data set [1], the MIC99 amounted to 12.5 µg/mL (≈ 39.9 µM). Also, in data set [2], the cytotoxicity at 72 h, 50 ug/ml was 38.1%.

Regarding `O=C(NCc1ccc2c(c1)OCO2)c1nc2ccccc2s1`, in data set [1], the MIC99 was found to be 6.25 µg/mL (≈ 20 µM). In addition, in data set [2], the cytotoxicity at 72 h, 50 ug/ml worked out at 16.1%.

As for `O=C(NCCc1ccccc1)c1nc2ccccc2s1`, the MIC99 in data set [1] came to 3.12 µg/mL (≈ 11.1 µM). Moreover, the cytotoxicity at 72 h, 50 ug/ml in data set [2] was found to be 22%.

In the case of `Nc1ccc(CCNC(=O)c2nc3ccccc3s2)cc1`, in data set [1], the MIC99 was 25 µg/mL (≈ 84.1 µM).

In data set [1], `COc1ccc(CCNC(=O)c2nc3ccccc3s2)cc1OC` showed an MIC99 of 25 µg/mL (≈ 73 µM).

The compound `O=C(NCc1ccccc1)c1nc2cc(Cl)ccc2s1` registered an MIC99 in data set [1] of 6.25 µg/mL (≈ 20.6 µM). Besides, the cytotoxicity at 72 h, 50 ug/ml in data set [2] is 40.1%.

On to `O=C(NCc1ccc(F)cc1)c1nc2cc(Cl)ccc2s1`, for which the MIC99 in data set [1] came out at 25 µg/mL (≈ 77.9 µM).

In data set [1], `O=C(NCc1cc(F)ccc1F)c1nc2cc(Cl)ccc2s1` yielded an MIC99 of 0.78 µg/mL (≈ 2.3 µM). The cytotoxicity at 72 h, 50 ug/ml in data set [2] was determined as 32.2%. Further, in data set [3], the selectivity ratio was above 64.

`O=C(NCc1ccccc1Cl)c1nc2cc(Cl)ccc2s1` yielded an MIC99 in data set [1] of 12.5 µg/mL (≈ 37.1 µM). In addition, the cytotoxicity at 72 h, 50 ug/ml in data set [2] worked out at 36%.

Take `O=C(NCc1cccc(Cl)c1)c1nc2cc(Cl)ccc2s1`: in data set [1], the MIC99 turned out to be 25 µg/mL (≈ 74.1 µM).

For `O=C(NCc1ccc(Cl)cc1)c1nc2cc(Cl)ccc2s1`, the MIC99 in data set [1] was found to be 25 µg/mL (≈ 74.1 µM).

For `COc1ccccc1CNC(=O)c1nc2cc(Cl)ccc2s1`, the MIC99 in data set [1] was determined as 12.5 µg/mL (≈ 37.6 µM). Moreover, the cytotoxicity at 72 h, 50 ug/ml in data set [2] was 38.9%.

Compound `COc1ccc(CNC(=O)c2nc3cc(Cl)ccc3s2)cc1OC` registered an MIC99 in data set [1] of 6.25 µg/mL (≈ 17.2 µM). Besides, the cytotoxicity at 72 h, 50 ug/ml in data set [2] stood at 36.1%.

For `Nc1ccc(CCNC(=O)c2nc3cc(Cl)ccc3s2)cc1`, in data set [1], the MIC99 stood at 1.56 µg/mL (≈ 4.7 µM). Also, the cytotoxicity at 72 h, 50 ug/ml in data set [2] came to 25.9%.

Compound `COc1ccc(CCNC(=O)c2nc3cc(Cl)ccc3s2)cc1OC` registered an MIC99 in data set [1] of 12.5 µg/mL (≈ 33.2 µM). For the same compound, the cytotoxicity at 72 h, 50 ug/ml in data set [2] came out at 30.9%.

For `O=C(NCc1ccccc1)c1nc2cc(C(F)(F)F)ccc2s1`, the MIC99 in data set [1] was 6.25 µg/mL (≈ 18.6 µM). For the same compound, in data set [2], the cytotoxicity at 72 h, 50 ug/ml was found to be 40.1%.

For `O=C(NCc1ccc(F)cc1)c1nc2cc(C(F)(F)F)ccc2s1`, the MIC99 in data set [1] is 12.5 µg/mL (≈ 35.3 µM). The cytotoxicity at 72 h, 50 ug/ml in data set [2] was 38.7%.

`Nc1ccc(CCNC(=O)c2nc3cc(C(F)(F)F)ccc3s2)cc1`: in data set [1], the MIC99 was 50 µg/mL (≈ 137 µM).

`COc1ccc(CCNC(=O)c2nc3cc(C(F)(F)F)ccc3s2)cc1OC`: the MIC99 in data set [1] was determined as 25 µg/mL (≈ 60.9 µM).

In data set [1], `CC[C@@H](CO)NCCN[C@@H](CC)CO` [ETHAMBUTOL] yielded an MIC99 of 1.56 µg/mL (≈ 7.64 µM).

`NNC(=O)c1ccncc1` [ISONIAZID]: the MIC99 in data set [1] was 0.098 µg/mL (≈ 0.715 µM).

In data set [1], `NC(=O)c1cnccn1` [PYRAZINAMIDE] had an MIC99 of 6.25 µg/mL (≈ 50.8 µM).

The compound `CO[C@H]1/C=C/O[C@@]2(C)Oc3c(C)c(O)c4c(O)c(c(/C=N/N5CCN(C)CC5)c(O)c4c3C2=O)NC(=O)/C(C)=C\C=C\[C@H](C)[C@H](O)[C@@H](C)[C@@H](O)[C@@H](C)[C@H](OC(C)=O)[C@@H]1C` [RIFAMPIN] gave an MIC99 in data set [1] of 0.197 µg/mL (≈ 0.239 µM).

The term MIC99 denotes an inhibitory concentration at the 99% level, which refers to growth in some studies and to a panel of isolates in others.
